From patent publication US9757477B2, “Imaging brown adipose tissue with curcumin derivatives” (The General Hospital Corporation, priority 2013, dated 2017)
“And” between values parts separate entries of the source, which are not always exact repeats. Equal entries are not always repeated. “Also recorded” adds a separate entry of the source.

Columns and labels:
[1] = Excitation and emission wavelengths of BAT imaging agents; assay type: physicochemical
Description: In some embodiments, the methods include irradiating the mammal with light of the appropriate wavelength to excite the BAT imaging agent, and detecting emissions therefrom.
Fluorescent dyes were purchased from Exciton Inc. (Dayton, Ohio) and Invitrogen. The reagents used for the synthesis were purchased from Aldrich and used without further purification. Column chromatography was performed on silica gel (SiliCycle Inc., 60 Å, […]) slurry packed into glass columns. 1H, 13C NMR spectra were recorded at 500 MHz and 125 MHz respectively, and reported in ppm downfield from tetramethylsilane. Fluorescence studies were carried out using a F-4500 Fluorescence Spectrophotometer (Hitachi). Mass spectra were obtained at Harvard University, Department of Chemistry Instrumentation Facility. Microscopic images were acquired with Nikon Eclipse 50i microscope. In vivo NIR imaging was performed using the IVIS® Spectrum animal imaging system (Caliper LifeSciences, Perkin Elmer, Hopkinton, Mass.), and data analysis was conducted using LivingImage® 4.2.1 software.

[2] = system: interscapular BAT; experiment: Top-down whole-organism NIR fluorescence screening of dyes (ROI1/ROI2 contrast); assay type: in vivo, nude mice; details: for visible contrast around the interscapular BAT area: in vivo NIR images; for Ratio No 1 (ROI1/ROI2 average fluorescence intensity) / Ratio No 2 (ROI1/ROI2 average fluorescence intensity) / Ratio No 3 (ROI1/ROI2 average fluorescence intensity) / Ratio AVERAGE (mean ratio ROI1/ROI2): nude mice, one hour post-injection; for Ratio No 1 (ROI1/ROI2 average fluorescence intensity) / Ratio No 2 (ROI1/ROI2 average fluorescence intensity) / Ratio No 3 (ROI1/ROI2 average fluorescence intensity): 10 μg/mouse i.v.; for Ratio No 1 (ROI1/ROI2 average fluorescence intensity): first excitation/emission filter pair; for Ratio No 2 (ROI1/ROI2 average fluorescence intensity): second excitation/emission filter pair; for Ratio No 3 (ROI1/ROI2 average fluorescence intensity): third excitation/emission filter pair; for Ratio AVERAGE (mean ratio ROI1/ROI2): i.v., mean of three filter pairs, hit threshold >1.10
Description: 38 fluorescent dyes from commercial resources and from the inventors' laboratory were screened. Dyes with excitation range of 550-745 nm, emission range of 600-840 nm, and with molecular weight of less than 700 Da (except Cy5.5) (representative dyes are listed in FIG. 1d and the full list is shown in Table 2). Their hydrophobicities were not determined. The library was screened by intravenous tail injection of compounds into nude mice (10μg/mouse). Each dye was imaged with three optimized excitation/emission filter-pairs, and images at one hour after i.v. injection were acquired.
Top-down whole organism screening was performed as follows. Nude mice (nu/nu COX7) were purchased from Massachusetts General Hospital and Balb/c mice were from Jackson Laboratory. All animal experimental procedures were approved by the Institutional Animal Care and Use Committee (IACUC) at Massachusetts General Hospital. Dye stock solutions were prepared in DMSO. The final injection solution (0.1 mg/ml) was freshly prepared in a mixed solution of 20% DMSO, 20% Cremophor EL and 60% saline. Nude mice (n=5) were injected with a 100 μL dye solution via tail vein. For each imaging session, mice were anesthetized with a mixture of oxygen and isoflurane for 5 minutes, and then positioned into the imaging chamber of IVIS® Spectrum in vivo pre-clinical imaging system. Images were acquired at one-hour post-injection using sequence imaging with three excitation/emission filter pairs for each dye.
Hits selection was performed as follows. Hits from cell- or protein-based screening are usually selected by setting certain threshold. In the case of the top-down imaging screening, two methods were used (threshold and visible contrast) to select hits. First, three images obtained with three excitation/emission pairs were selected for each dye. These ex/em pairs were selected from the closest excitation and emission wavelengths of the tested dyes. For instance, 605/660 nm, 605/680 nm, 640/680 nm were selected for image acquisition of Nile blue (625/660 nm). The quantification of contrast for each image was calculated as a ratio of two ROIs (region of interest). ROI1 reflected the average signal from interscapular BAT and ROI2 was the average signal of the area that included BAT and white adipose tissue (WAT) around the interscapular site (FIG. 1b, left). The averaged fluorescent signal of ROI was used instead of the total signal, because the total signal depends on the area of ROI, whereas the averaged signal reflects the density of signal. The ratio of ROI1/ROI2 could reflect the signal/noise ratio of the tested probe, and could also reflect the selectivity of the probe for BAT over WAT. For each dye, three ROI1/ROI2 ratios obtained with the three filter pairs were calculated. The mean of the ratios was used as the threshold. If the mean ratio was >1.10, the dye was selected as a potential positive hit (FIG. 1c). Since the contrast of a dye in the top-down screening is in the visible range, the visible contrast around the interscapular BAT area was also tested for the hits with the mean ratio of >1.10. If both mean ratio and the visible contrast were positive, then the hit was subjected to re-testing procedure to validate its reliability as described below.
Although CRANAD-2 and CRANAD-3 were able to provide certain contrast for BAT in vivo, their excitation and emission wavelengths were still shorter than required for an ideal NIR imaging probe (both excitation and emission >640 nm). […] To seek better probes, a sub-library was synthesized based on the structures of the lead probes CRANAD-2 and -3. CRANAD-6, -19, -22, -24, -26, -32 and -43 were synthesized and tested (images and chemical structures, excitation and emission spectra are shown in FIG. 9 a-e). […] However, the ROI1/ROI2 ratio of CRANAD-22 was not improved (FIG. 9c).

[3] = system: interscapular BAT; experiment: Re-testing of hits with stepwise dissection and NIR imaging; assay type: in vivo, mice; details: stepwise dissection
Description: Like protein/cell-based screening, hit re-testing experiments were conducted to validate the reliability of this approach. CRANAD-2, -3, LDS 722 and Rhodamine 640 were subjected to re-testing by repeating the above imaging procedure. Images were acquired one hour after probe injection.
Next, stepwise dissection and imaging were performed to track the source of the fluorescence contrast at the interscapular site. Skin and the thin WAT layer that covers BAT were first removed, and then BAT was dissected, and NIR images were captured at each step. […] The signal contribution from BAT (R(BAT)) was roughly estimated using the ratio of fluorescence signals acquired after (F(BAT)) and before (F(intact)) the first step dissection of skin and WAT.

Emission λ [1] [nm] | Excitation λ [1] [nm] | Molecule | visible contrast around the interscapular BAT area [2] | ROI1/ROI2 ratio compared with lead probe ([2]; sub-library probes, compared with CRANAD-2) | selectivity for BAT (over WAT) [3] | Ratio No 1 (ROI1/ROI2 average fluorescence intensity) [2] | Ratio No 2 (ROI1/ROI2 average fluorescence intensity) [2] | Ratio No 3 (ROI1/ROI2 average fluorescence intensity) [2] | Ratio AVERAGE (mean ratio ROI1/ROI2) [2] | fluorescence signal from BAT (before vs after BAT removal) [3]
750 | 620 | CN(C)c1ccc(/C=C/C2=CC(/C=C/c3ccc(N(C)C)c4ccccc34)=[O+][B-](F)(F)O2)c2ccccc12 [CRANAD-6] |  |  |  |  |  |  |  | 
637 | 587 | F[B-]1(F)OC(/C=C/c2c(-c3ccccc3)[nH]c3ccccc23)=CC(/C=C/c2c(-c3ccccc3)[nH]c3ccccc23)=[O+]1 [CRANAD-26] |  |  |  |  |  |  |  | 
700 | 640 | CN(C)c1ccc(/C=C/C=C/C2=CC(/C=C/C=C/c3ccc(N(C)C)cc3)=[O+][B-](F)(F)O2)cc1 [CRANAD-43] | best contrast | higher | not significantly increased; also recorded: poor selectivity |  |  |  |  | 
 |  | N=c1cc2oc3cc(N)ccc3nc-2c2ccccc12 [Cresyl Violet] |  |  |  | 9.56E−01 | 9.72E−01 | 1.02E+00 | 9.81E−01 | 
 |  | CCN1/C(=C/C=C/C=C/c2oc3ccccc3[n+]2CC)Oc2ccccc21.[I-] [DODC] |  |  |  | 1.08E+00 | 1.09E+00 | 1.10E+00 | 1.09E+00 | 
 |  | CCN1/C(=C/C=C/C=C/C=C/c2oc3ccccc3[n+]2CC)Oc2ccccc21.[I-] [DOTC] |  |  |  | 9.48E−01 | 9.44E−01 | 9.52E−01 | 9.48E−01 | 
 |  | CN1C(=CC=CC=CC2=[N+](C)c3ccccc3C2(C)C)C(C)(C)c2ccccc21.[I-] [HIDC] |  |  |  | 1.01E+00 | 1.01E+00 | 1.02E+00 | 1.01E+00 | 
 |  | CN1C(=CC=CC=CC=CC2=[N+](C)c3ccccc3C2(C)C)C(C)(C)c2ccccc21.[I-] [HITC] |  |  |  | 1.07E+00 | 1.02E+00 | 1.06E+00 | 1.05E+00 | 
 |  | CC1(C)C(/C=C/C=C/C=C/C=C2\N(CCCCS(=O)(=O)[O-])c3ccc4ccccc4c3C2(C)C)=[N+](CCCCS(=O)(=O)[O-])c2ccc3ccccc3c21.[Na+] [IR125] |  |  |  | 8.65E−01 | 9.76E−01 | 8.49E−01 | 8.97E−01 | 
 |  | CN1/C(=C/C=C2\CCCC(/C=C/C3=[N+](C)c4ccc5ccccc5c4C3(C)C)=C2Cl)C(C)(C)c2c1ccc1ccccc21.Cc1ccc(S(=O)(=O)[O-])cc1 [IR813] |  |  |  | 1.08E+00 | 9.91E−01 | 1.08E+00 | 1.05E+00 | 
 |  | CC[n+]1ccccc1/C=C/C=C/c1ccc(N(C)C)cc1.[O-][Cl+3]([O-])([O-])[O-] [LDS698] |  |  |  | 1.03E+00 | 1.06E+00 | 1.04E+00 | 1.04E+00 | 
 |  | CC[n+]1ccc(C=CC=Cc2ccc(N(C)C)cc2)cc1.[O-][Cl+3]([O-])([O-])[O-] [LDS722] | weak contrast and no clear triangular contours |  |  | 1.15E+00 | 1.14E+00 | 1.08E+00 | 1.13 and 1.13E+00 | no significant fluorescent signal was from BAT
 |  | CN(C)c1ccc(/C=C/C=C/C2=[N+](C)c3ccccc3C2(C)C)cc1.[O-][Cl+3]([O-])([O-])[O-] [LDS730] |  |  |  | 1.03E+00 | 1.08E+00 | 1.09E+00 | 1.07E+00 | 
 |  | CC[n+]1c(/C=C/C=C/c2ccc(N(C)C)cc2)ccc2cc(N(C)C)ccc21.[O-][Cl+3]([O-])([O-])[O-] [LDS751] |  |  |  | 1.07E+00 | 1.05E+00 | 1.11E+00 | 1.08E+00 | 
 |  | CC[n+]1ccc(/C=C/C=C/c2ccc(N(C)C)cc2)c2ccccc21.[O-][Cl+3]([O-])([O-])[O-] [LDS798] |  |  |  | 1.00E+00 | 1.00E+00 | 9.88E−01 | 9.98E−01 | 
 |  | CCN=c1cc2oc3c4c5c(cc3nc-2c2ccccc12)CCCN5CCC4 [OX750] |  |  |  | 1.09E+00 | 1.09E+00 | 1.04E+00 | 1.07E+00 | 
 |  | CC1=C(C)C(C)=[N+]2C1=C(C#N)c1c(C)c(C)c(C)n1[B-]2(F)F [Pyromethene650] |  |  |  | 1.09E+00 | 1.07E+00 | 1.08E+00 | 1.08E+00 | 
 |  | O=C(O)c1ccccc1C1=c2cc3c4c(c2Oc2c1cc1c5c2CCCN5CCC1)CCC[N+]=4CCC3.[Cl-] [Rhodamine640] | weak contrast and no clear triangular contours |  |  | 1.15E+00 | 1.15E+00 | 1.15E+00 | 1.15 and 1.15E+00 | no significant signals were from BAT
 |  | CCN(CC)c1ccc2c(-c3ccccc3C(C)=O)c3ccc(=[N+](CC)CC)cc-3oc2c1 [RhodamineB] |  |  |  | 1.01E+00 | 1.01E+00 | 9.54E−01 | 9.90E−01 | 
 |  | Cy5.5 |  |  |  | 1.07E+00 | 1.07E+00 | 1.06E+00 | 1.07E+00 | 
 |  | Sulforhodamine |  |  |  | 8.51E−01 | 8.86E−01 | 9.21E−01 | 8.86E−01 | 
